Where only a bound is given, the exact number is not on record here.

For this assay, the system named is hypoxia-induced VEGF production in HeLa cells. The assay is described as follows: cells. The format is cell-based, human. As to conditions: Homo sapiens, HeLa.
On to `CCOC(=O)NC[C@H](O)COc1ccc([C@H]2c3[nH]c4ccc(Cl)cc4c3CCN2C(=O)OCC)cc1` [Compound 1651], for which the EC50 is < 8 nM.
In the case of `C[Si](C)(C)CCS(=O)(=O)N1CCC(Oc2ccc([C@H]3c4[nH]c5ccc(Cl)cc5c4CCN3C(=O)Oc3ccc(Cl)cc3)cc2)CC1` [Compound 1652] it was < 8 nM; in that of `CCOC(=O)N1CCc2c([nH]c3ccc(Cl)cc23)[C@@H]1c1ccc(Oc2nc(C)cnc2C)cc1` [Compound 1653], < 8 nM; in that of `CCOC(=O)N1CCc2c([nH]c3ccc(Cl)cc23)[C@@H]1c1ccc(Oc2nccnc2C)cc1` [Compound 1654], < 8 nM.
The molecule `CCOC(=O)N1CCc2c([nH]c3ccc(Cl)cc23)[C@@H]1c1ccc(Oc2cnc(N)cn2)cc1` [Compound 1655] yielded an EC50 of 40 to 200 nM.
For the molecule `CCOC(=O)N1CCc2c([nH]c3ccc(Cl)cc23)[C@@H]1c1ccc(Oc2ncc(CN3CCOCC3)s2)cc1` [Compound 1656], the EC50 was < 8 nM.
As for `CCOC(=O)N1CCc2c([nH]c3ccc(Cl)cc23)[C@@H]1c1ccc(Oc2ncc(CN3CCN(C)CC3)s2)cc1` [Compound 1657], the EC50 is < 8 nM.
For `O=C(Oc1ccc(Cl)cc1)N1CCc2c([nH]c3ccc(Cl)cc23)[C@@H]1c1ccc(Oc2ncc(CN3CCOCC3)s2)cc1` [Compound 1660], the concentration for a half-maximal effect (EC50) was < 8 nM.
Regarding `CN1CCN(Cc2cnc(Oc3ccc([C@H]4c5[nH]c6ccc(Cl)cc6c5CCN4C(=O)Oc4ccc(Cl)cc4)cc3)s2)CC1` [Compound 1661], the half-maximal effective concentration (EC50) was < 8 nM.
`COc1ccc([C@H]2c3[nH]c4ccc(Cl)cc4c3CCN2C(=O)OCC2CCCC2)cc1` [Compound 1662] gave an EC50 of 8 to 40 nM.
Regarding `CCOC(=O)NC[C@H](O)COc1ccc([C@H]2c3[nH]c4ccc(Cl)cc4c3CCN2C(=O)Oc2ccc(F)cc2)cc1` [Compound 1663], the EC50 is < 8 nM.
With `CCOC(=O)NC[C@@H](O)COc1ccc([C@H]2c3[nH]c4ccc(Cl)cc4c3CCN2C(=O)Oc2ccc(F)cc2)cc1` [Compound 1664] the figure was < 8 nM.
With `CCOC(=O)NCC(O)CCOc1ccc([C@H]2c3[nH]c4ccc(Cl)cc4c3CCN2C(=O)OCC)cc1` (stereo partly drawn) [Compound 1665] the figure was 8 to 40 nM; with `CC1(C)C(=O)NC(=O)N1CCCOc1ccc(C2c3[nH]c4ccc(Cl)cc4c3CCN2C(=O)Oc2ccc(Cl)cc2)cc1` (stereo not drawn) [Compound 1671], < 8 nM; with `O=C1CN(CCCOc2ccc(C3c4[nH]c5ccc(Cl)cc5c4CCN3C(=O)Oc3ccc(Cl)cc3)cc2)C(=O)N1` (stereo not drawn) [Compound 1672], < 8 nM.
With `CN1C(=O)CN(CCCOc2ccc(C3c4[nH]c5ccc(Cl)cc5c4CCN3C(=O)Oc3ccc(Cl)cc3)cc2)C1=O` (stereo not drawn) [Compound 1673] the figure was < 8 nM; with `CC#CCOC(=O)N1CCc2c([nH]c3ccc(Cl)cc23)[C@@H]1c1ccc(OC2CCN(c3ncccn3)CC2)cc1` [Compound 1678], < 8 nM.
`CC#CCOC(=O)N1CCc2c([nH]c3ccc(Cl)cc23)[C@@H]1c1ccc(OC2CCN(CCN3CCOCC3)CC2)cc1` [Compound 1679] showed a concentration for a half-maximal effect (EC50) of 8 to 40 nM.
With `CC#CCOC(=O)N1CCc2c([nH]c3ccc(Cl)cc23)[C@@H]1c1ccc(OC2CCN(C(=O)OCCN3CCOCC3)CC2)cc1` [Compound 1680] the figure was < 8 nM; with `O=C(Oc1ccc(Cl)cc1)N1CCc2c([nH]c3ccc(Cl)cc23)[C@@H]1c1ccc(OC2CCN(CCN3CCOCC3)CC2)cc1` [Compound 1682], < 8 nM.
In the case of `CC#CCOC(=O)N1CCc2c([nH]c3ccc(Cl)cc23)[C@@H]1c1ccc(OC2CCNCC2)cc1` [Compound 1683] it was 8 to 40 nM.
`CC#CCOC(=O)N1CCc2c([nH]c3ccc(Cl)cc23)[C@@H]1c1ccc(OC2CCN(C)CC2)cc1` [Compound 1684]: the EC50 lay in the range of 8 to 40 nM.
On to `O=C(OCC1CCCC1)N1CCc2c([nH]c3ccc(Cl)cc23)[C@@H]1c1ccc(OC[C@H](O)CO)cc1` [Compound 1685], for which the EC50 was < 8 nM.
For `O=C(OCC1CCCC1)N1CCc2c([nH]c3ccc(Cl)cc23)[C@@H]1c1ccc(OC[C@@H](O)CO)cc1` [Compound 1686], the EC50 is < 8 nM.

The values above are taken from patent publication US11613538B2, “Method of inhibiting or reducing a viral infection” (PTC Therapeutics, Inc., priority 2009, dated 2023).
